From PMC9754640, “Z-REX uncovers a bifurcation in function of Keap1 paralogs” (eLife, 2022)

Legend:
hKeap1 [1] = target: T1, hKeap1 (Homo sapiens, UniProt Q14145); test: Z-REX in zebrafish embryos, biotin-azide Click, streptavidin pulldown, western blot; conditions: covalent; alkyne-labelled compound released from Ht-PreDE (6 uM) in live embryos; also labelled by bolus DE
T1 construct: gene KEAP1; full-length, His6-HaloTag-TEV fusion (2xHA C-terminal in fish); TEV-cleaved after lysis, about 70 kDa; expressed in HEK293T cells or zebrafish embryos
T1 sequence (Q14145 whole entry, the tested form may be a part): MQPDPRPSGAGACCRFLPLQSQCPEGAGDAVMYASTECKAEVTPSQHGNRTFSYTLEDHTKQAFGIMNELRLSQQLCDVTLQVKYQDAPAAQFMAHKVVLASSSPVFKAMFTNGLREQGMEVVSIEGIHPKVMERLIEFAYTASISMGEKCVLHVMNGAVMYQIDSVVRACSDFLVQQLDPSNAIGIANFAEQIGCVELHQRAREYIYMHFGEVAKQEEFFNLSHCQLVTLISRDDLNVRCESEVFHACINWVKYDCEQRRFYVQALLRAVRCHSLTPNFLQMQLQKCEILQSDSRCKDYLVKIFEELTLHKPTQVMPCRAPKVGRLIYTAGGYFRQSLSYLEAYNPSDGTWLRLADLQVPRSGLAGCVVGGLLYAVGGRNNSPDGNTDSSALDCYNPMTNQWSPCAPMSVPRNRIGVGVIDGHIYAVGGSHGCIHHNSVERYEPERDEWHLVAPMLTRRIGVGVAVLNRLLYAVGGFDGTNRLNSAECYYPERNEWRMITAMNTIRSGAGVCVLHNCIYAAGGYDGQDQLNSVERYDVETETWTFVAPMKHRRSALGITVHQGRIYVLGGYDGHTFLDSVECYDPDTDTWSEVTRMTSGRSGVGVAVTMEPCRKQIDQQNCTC

zKeap1a [2] = target: T2, zKeap1a (Danio rerio, UniProt Q1ECZ2); test: T-REX photouncaging in HEK293T, TEV cleavage, Cy5-azide Click in-gel fluorescence; assay type: cell-based; conditions: covalent; alkyne-labelled compound released from Ht-PreNE bound to HaloTag (10 uM in legend, 25 uM in methods), live cells
T2 construct: gene keap1a; full-length, myc-HaloTag-TEV-3xFlag N-terminal fusion, TEV-cleaved after lysis; HEK293T expression
T2 sequence (Q1ECZ2 1-601): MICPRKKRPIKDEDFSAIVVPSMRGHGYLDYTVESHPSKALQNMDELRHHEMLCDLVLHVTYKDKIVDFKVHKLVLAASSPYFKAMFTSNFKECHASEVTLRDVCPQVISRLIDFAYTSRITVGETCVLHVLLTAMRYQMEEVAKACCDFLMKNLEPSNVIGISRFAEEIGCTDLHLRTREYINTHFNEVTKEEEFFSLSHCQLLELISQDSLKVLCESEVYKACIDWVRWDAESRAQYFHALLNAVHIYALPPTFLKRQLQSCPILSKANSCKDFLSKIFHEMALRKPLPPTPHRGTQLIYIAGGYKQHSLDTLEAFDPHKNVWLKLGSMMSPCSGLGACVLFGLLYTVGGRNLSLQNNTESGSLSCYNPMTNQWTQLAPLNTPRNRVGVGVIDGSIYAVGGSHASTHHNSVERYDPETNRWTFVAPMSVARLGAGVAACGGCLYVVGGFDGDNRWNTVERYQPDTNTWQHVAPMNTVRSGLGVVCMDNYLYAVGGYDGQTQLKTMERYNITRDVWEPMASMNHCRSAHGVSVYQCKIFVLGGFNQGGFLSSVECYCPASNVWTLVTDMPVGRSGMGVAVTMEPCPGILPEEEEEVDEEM

hKeap1 [3] = target: T3, hKeap1 (Homo sapiens, UniProt Q14145, C273I); test: as above; assay type: cell-based; conditions: covalent; alkyne-labelled compound released from Ht-PreNE bound to HaloTag (10 uM in legend, 25 uM in methods), live cells
T3 construct: gene KEAP1; full-length, His6-HaloTag-TEV fusion (2xHA C-terminal in fish); TEV-cleaved after lysis, about 70 kDa; expressed in HEK293T cells or zebrafish embryos
T3 sequence (Q14145 whole entry C273I, the tested form may be a part): as the sequence (Q14145 whole entry, the tested form may be a part) above, with C273I counted along it

zKeap1b [4] = target: T4, zKeap1b (Danio rerio, UniProt A0A2R8Q1W5); test: as above; assay type: cell-based; conditions: covalent; alkyne-labelled compound released from Ht-PreNE bound to HaloTag (10 uM in legend, 25 uM in methods), live cells
T4 construct: gene keap1b; full-length, myc-HaloTag-TEV-3xFlag N-terminal fusion, TEV-cleaved after lysis; HEK293T expression
T4 sequence (A0A2R8Q1W5 1-593 isoform A0A2R8Q1W5-3): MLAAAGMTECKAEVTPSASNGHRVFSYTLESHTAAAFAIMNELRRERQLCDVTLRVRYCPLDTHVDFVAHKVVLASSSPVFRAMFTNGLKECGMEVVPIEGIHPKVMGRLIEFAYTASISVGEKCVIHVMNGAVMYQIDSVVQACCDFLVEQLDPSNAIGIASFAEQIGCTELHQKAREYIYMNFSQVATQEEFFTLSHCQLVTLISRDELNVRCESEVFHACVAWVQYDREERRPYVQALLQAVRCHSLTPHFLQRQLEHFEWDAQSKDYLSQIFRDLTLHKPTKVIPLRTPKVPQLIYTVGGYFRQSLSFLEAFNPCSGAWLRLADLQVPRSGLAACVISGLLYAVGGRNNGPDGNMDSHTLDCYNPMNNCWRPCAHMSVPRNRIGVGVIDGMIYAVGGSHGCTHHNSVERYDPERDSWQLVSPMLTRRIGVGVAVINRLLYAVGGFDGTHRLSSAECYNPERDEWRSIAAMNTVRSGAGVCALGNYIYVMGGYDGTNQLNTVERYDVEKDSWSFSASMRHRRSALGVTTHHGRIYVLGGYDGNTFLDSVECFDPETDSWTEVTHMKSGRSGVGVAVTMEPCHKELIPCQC

hKeap1 [5] = target: T1, hKeap1; test: as above; assay type: cell-based; conditions: covalent; alkyne-labelled compound released from Ht-PreNE bound to HaloTag (10 uM in legend, 25 uM in methods), live cells
hKeap1 [6] = target: T3, hKeap1; test: as above; assay type: cell-based; conditions: covalent; alkyne-labelled compound released from Ht-PreHNE bound to HaloTag (25 uM in methods), live cells
hKeap1 [7] = target: T1, hKeap1; test: as above; assay type: cell-based; conditions: covalent; alkyne-labelled compound released from Ht-PreHNE bound to HaloTag (25 uM in methods), live cells
zKeap1a [8] = target: T2, zKeap1a; test: as above; assay type: cell-based; conditions: covalent; alkyne-labelled compound released from Ht-PreHNE bound to HaloTag (25 uM in methods), live cells
zKeap1b [9] = target: T4, zKeap1b; test: as above; assay type: cell-based; conditions: covalent; alkyne-labelled compound released from Ht-PreHNE bound to HaloTag (25 uM in methods), live cells

For `C#CCCCC/C=C/C(C)=O` [DE], the “Z-REX in zebrafish embryos, biotin-azide Click, streptavidin pulldown, western b” value (hKeap1 [1]) was “using DE as an example that hKeap1-labeling extent was similar to that achieved with HNE”.

For `C#CCCCC/C=C/C=O` [NE], the targeting efficiency (zKeap1a [2]) was “zKeap1a/b, both of which sensed NE to the same extent”, the targeting efficiency (hKeap1 [3]) was “hKeap1 and hKeap1(C273I) sensed NE marginally better than zKeap1a/b” and the targeting efficiency (zKeap1b [4]) was “zKeap1a/b, both of which sensed NE to the same extent”. The targeting efficiency (hKeap1 [5]) was “hKeap1 and hKeap1(C273I) sensed NE marginally better than zKeap1a/b”.

In the case of `C#CCCCC(O)/C=C/C=O` (stereo not drawn) [HNE], the “T-REX photouncaging in HEK293T, TEV cleavage, Cy5-azide Click in-gel fluorescenc” value (from here on “T-REX photouncaging in HEK293T”) (hKeap1 [6]) is reported as “all four proteins sensed HNE equally well”, the “T-REX photouncaging in HEK293T” value (hKeap1 [7]) is reported as “all four proteins sensed HNE equally well” and the “T-REX photouncaging in HEK293T” value (zKeap1a [8]) is reported as “all four proteins sensed HNE equally well”. The “T-REX photouncaging in HEK293T” value (zKeap1b [9]) was “all four proteins sensed HNE equally well”.
